Laboratory results as given in patent US7893266B2, “Detection of cancer cells in vitro using sigma-2 receptor ligands as radiotracers” (Washington University, priority 2003, dated 2011).

Test system: EMT-6 breast tumor xenograft
Assay: MicroPET imaging studies in mice bearing EMT-6 breast tumor
Type: in vivo, Balb-c mice
Description: The no-carrier-added (NCA) study is on the left and the sigma receptor blocking study (1 mg/kg, i.v. YUN-143) is shown on the right.
This compound was studied in mature Balb/C mice that were implanted with EMT-6 mammary tumors. The mice were implanted in the nape of the neck 7 days prior to the study. The biodistribution study consisted of three groups: 1 hr low dose (≈6 μCi), 4 hr low dose and a 4 hr high dose (≈150 μCi). The % ID/g at 1 hr for tumor, brain, fat, blood and liver were 4.0±0.4, 0.25±0.02, 1.1±0.4, 2.1±0.3 and 5.4±0.4, respectively. At 4 hr for the low dose animals the values decreased to 1.2±0.2, 0.15±0.02, 0.3±0.2, 0.82±0.08 and 1.3±0.2, respectively. […] The activity injected into the high dose animals was enough to perform microPET® imaging studies. […] This initial study has shown that this σ2 receptor compound has a high uptake into EMT-6 mammary tumors and can be imaged non-invasively. (MicroPET® is a dedicated PET scanner designed for high resolution imaging of small laboratory animals. It is available from Concorde Microsystems, Inc. 10427 Cogdill Rd, Suite 500 Knoxville, Tenn. 37932 USA.)
MicroPET® Imaging Studies—The inventors conducted microPET® imaging studies with [^76Br]6 in Balb-c mice bearing EMT-6 breast tumor xenografts to model a living mammal afflicted with cancer.

COc1cc2c(cc1OC)CN(CCCCNC(=O)c1cc([76Br])cc(OC)c1OC)CC2 [[^76Br]6]
microPET imaging: identification of tumors (high dose animals, 1 and 2 hr, three animals): tumors were clearly identified | microPET imaging: tumor uptake, NCA study versus sigma receptor blocking study (no-carrier-added versus blocking with YUN-143 1 mg/kg i.v.): high uptake of the radiotracer in the NCA study (left image), which can be blocked with a known sigma receptor ligand
